Measurements as given in US6509369B2, “Anti-inflammatory compounds” (Ortho-McNeil Pharmaceutical, Inc., priority 1997, dated 2003).

Key:
[1] = test system: oxazolone-induced ear swelling (MOCH) in albino male CD-1 mice; assay: mouse oxazolone-induced contact hypersensitization (MOCH) ear swelling; type: in vivo; conditions: for Oxazolone Ear swelling % Inhibition vs. Vehicle: topical mouse ear; for dose-related activity in the oxazolone model (in words) / topical antiinflammatory activity in the oxazolone model (in words): topical; for dose-related activity in the oxazolone model (in words): doses 0.1-3%; for topical antiinflammatory activity in the oxazolone model (in words): mouse ear; for Oxazolone Ear Swelling (MOCH) % inhibition vs. Vehicle at 1 mg / inhibition in vivo at 1 mg: topical to mouse ear, one hour after oxazolone challenge, ear biopsy weight at 24 hours; for inhibition in vivo at 1 mg: read-out: Oxazolone Ear Swelling (MOCH) % inhibition vs. Vehicle at 1 mg
Outline: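 Male CD-1 mice aged 7–9 weeks were sensitised on the abdomen with 3% oxazolone on Day 0 and challenged on Day 5 with 2% oxazolone on the left ear. Compounds in ethanol/propylene glycol 70:30 were applied topically to that ear 1 h after challenge. At 24 h, the weight difference between 7 mm left and right ear biopsies gave the measure of inhibition.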

[2] = target: T1, human glucocorticoid receptor (hGR) (Homo sapiens, UniProt P04150); assay: human glucocorticoid receptor binding assay (displacement of 3(H) Triamcinolone acetonide); conditions: for hGR, value given as %: concentration not given
T1 construct: made in house; host or cells: Sf21 insect cells infected with baculovirus hGR, OR IM9 lymphoblast cell line (endogenous hGR)
T1 sequence (P04150 1-777): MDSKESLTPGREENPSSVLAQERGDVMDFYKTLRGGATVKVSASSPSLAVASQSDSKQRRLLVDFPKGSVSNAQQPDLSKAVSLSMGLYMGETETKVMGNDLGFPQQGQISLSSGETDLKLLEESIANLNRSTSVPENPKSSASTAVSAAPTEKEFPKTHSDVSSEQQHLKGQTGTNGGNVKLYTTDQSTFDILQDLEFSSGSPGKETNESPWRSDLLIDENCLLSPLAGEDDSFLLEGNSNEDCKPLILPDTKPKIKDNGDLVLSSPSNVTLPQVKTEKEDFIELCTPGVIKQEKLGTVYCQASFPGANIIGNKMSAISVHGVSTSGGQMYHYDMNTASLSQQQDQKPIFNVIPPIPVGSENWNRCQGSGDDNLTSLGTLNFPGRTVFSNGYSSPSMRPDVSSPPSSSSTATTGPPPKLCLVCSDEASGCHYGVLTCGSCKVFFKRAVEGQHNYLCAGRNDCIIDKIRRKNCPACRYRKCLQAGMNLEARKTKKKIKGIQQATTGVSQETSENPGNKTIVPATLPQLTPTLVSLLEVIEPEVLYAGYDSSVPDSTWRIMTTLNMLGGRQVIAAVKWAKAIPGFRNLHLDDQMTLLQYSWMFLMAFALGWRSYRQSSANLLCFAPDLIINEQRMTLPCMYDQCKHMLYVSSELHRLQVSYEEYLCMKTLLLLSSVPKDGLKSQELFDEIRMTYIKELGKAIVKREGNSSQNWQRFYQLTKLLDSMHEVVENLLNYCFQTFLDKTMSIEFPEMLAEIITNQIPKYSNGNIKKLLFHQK

[3] = test system: TPA-induced ear edema in albino male CD1 mice; assay: TPA (phorbol ester)-induced ear edema; type: in vivo; conditions: dose 1%, topical mouse ear, 5.5 hours after TPA
Description: Several triphenylpropanamide compounds of this invention, having varying affinities for the human glucocorticoid receptor, were tested for topical antiinflammatory activity in mouse ear inflammation models. […] Compounds having receptor affinities closer to hydrocortisone were as nearly active as hydrocortisone in suppressing mouse oxazolone-induced contact hypersensitization (MOCH) and phorbol ester-induced ear edema. The in vivo studies of this example were conducted as follows.
Albino male CD1 mice, 7-9 weeks old were used in this example. A 0.005% (w/v) TPA or 20% (w/v) arachidonic acid (AA) solution was made in acetone. A 20 μl volume of the TPA or AA was applied to the dorsal left ear of the mouse. Compounds of this invention were placed in a composition containing ethanol/propylene glycol at a ratio of 70:30 were applied to the left ear of each mouse in an amount of 20 μl immediately after application of the TPA or AA. The right ear was not treated. The mice were sacrificed by carbon dioxide inhalation 5.5 hours after administration of TPA and one hour after administration of AA, the left and right ears were removed and a 7 mm biopsy was removed from each ear and weighed. The difference in biopsy weights between the right and left ears was calculated. Antiinflammatory effects of compounds were evident as an inhibition of the increase in ear weight.

[4] = test system: human progesterone receptor (hPR); assay: human progesterone receptor binding assay (displacement of 3(H) R5020 Promegestone)
Description: A human progesterone receptor binding assay was performed in order to determine selectivity of the compounds, as follows. Human progesterone receptors were prepared from either insect cells (SF21) infected with baculovirus hPR A, or from a breast cancer cell line, T47D, which expresses high levels of endogenous hPR. The receptor binding reactions, with or without test compounds, were set up in 96-well microtiter plates which were previously siliconized with SIGMACOTE. The binding components, 3(H) R5020 Promegestone, a high affinity ligand for the progesterone receptors, glycerol/molybdate-containing buffer and unlabeled compounds were added to the wells using a combination of BIOMEK laboratory automation system and repeat pipettes. After overnight incubation, the samples were precipitated with polyethylene glycol and filtered through Whatman GF/F paper using a TOMTEK cell harvester. The filter mate with 96 samples were bound to a solid-phase scintillant and directly counted in the BETAPLATE counter. Only those compounds that were active in the human glucocorticoid receptor assay set forth in Example 30 were used for progesterone receptor binding to determine cross-reactivity profiles, if any. The activity of test compounds to displace 3(H) R5020 binding to hPR is expressed as percent inhibition at the two concentrations, 10^−6 and 10^−5 Molar.

For `Cc1ccc(CC(=O)NCC(c2ccccc2)C(c2ccc(F)cc2)c2ccc(F)cc2)s1` (stereo not drawn) [Compound 32], the “Oxazolone Ear swelling % Inhibition vs. Vehicle” value ([1]; Experiment 2, dose 0.1%) was 11.2%, the “Oxazolone Ear swelling % Inhibition vs. Vehicle” value ([1]; Experiment 2, dose 0.3%) was 18.95% and the “Oxazolone Ear swelling % Inhibition vs. Vehicle” value ([1]; Experiment 2, dose 1%) was 31.45%. The “Oxazolone Ear swelling % Inhibition vs. Vehicle” value ([1]; Experiment 2, dose 3%) was 36.5%, the “dose-related activity in the oxazolone model (in words)” value [1] was “inhibited ear swelling in a dose-dependent manner” and the “topical antiinflammatory activity in the oxazolone model (in words)” value (“topical antiinflammatory activity” for short) [1] was “equiactive with hydrocortisone”. For the same compound, the IC50 [2] was 7 nM and the “% Inhibition of TPA Ear Edema vs. Vehicle” value [3] was 60.0%.
In the case of `COc1ccccc1NC(=O)NCC1(c2ccccc2)CC1(c1ccccc1)c1ccccc1` (stereo not drawn) [Compound 94], the “Oxazolone Ear Swelling (MOCH) % inhibition vs. Vehicle at 1 mg” value [1] is reported as 35%, the “hGR, value given as %” value [2] is reported as 13% and the “hPR % inh 10 μM” value [4] is reported as −18.6%.
With `O=C(NCc1ccccc1)NCC1(c2ccccc2)CC1(c1ccccc1)c1ccccc1` (stereo not drawn) [Compound 95] the “Oxazolone Ear Swelling (MOCH) % inhibition vs. Vehicle at 1 mg” value [1] was 16%, the “hGR, value given as %” value [2] was 4% and the “hPR % inh 10 μM” value [4] was −14.3%.
For `CC(C)CC(=O)NCC1(c2ccccc2)CC1(c1ccccc1)c1ccccc1` (stereo not drawn) [Compound 85], the “Oxazolone Ear Swelling (MOCH) % inhibition vs. Vehicle at 1 mg” value [1] was 16%, the “hGR, value given as %” value [2] was 68% and the “hPR % inh 10 μM” value [4] was 7.2s %.
`O=C(Cc1cccs1)NCC(c1cccs1)C(c1ccccc1)c1ccccc1` (stereo not drawn) [Compound 46] showed an inhibition in vivo at 1 mg [1] of 4%, an IC50 [2] of 723 nM and a melting point of 138.2 to 139.9 °C.
With `O=C(Cc1cccs1)NCC(c1ccccc1)C(c1ccccc1)c1ccccc1` (stereo not drawn) [Compound 29, N-(2-thiophrne)acetyl-2,3,3-triphenylpropylamine] the “Oxazolone Ear swelling % Inhibition vs. Vehicle” value ([1]; Experiment 1, dose 0.1%) was 4.3%, the “Oxazolone Ear swelling % Inhibition vs. Vehicle” value ([1]; Experiment 1, dose 0.3%) was 34.7% and the “Oxazolone Ear swelling % Inhibition vs. Vehicle” value ([1]; Experiment 1, dose 1%) was 49.9%. The “Oxazolone Ear swelling % Inhibition vs. Vehicle” value ([1]; Experiment 1, dose 3%) was 66.5%, the “dose-related activity in the oxazolone model (in words)” value [1] was “inhibited ear swelling in a dose-dependent manner” and the “topical antiinflammatory activity” value [1] was “equiactive with hydrocortisone”. The IC50 [2] was 8 nM, the “% Inhibition of TPA Ear Edema vs. Vehicle” value [3] was 64.9% and the “hPR % inh 10 μM” value [4] was 28.3%.
With `C[C@]12CCC(=O)C=C1CC[C@@H]1[C@@H]2[C@@H](O)C[C@@]2(C)[C@H]1CC[C@]2(O)C(=O)CO` [hydrocortisone, reference compound] the “Oxazolone Ear swelling % Inhibition vs. Vehicle” value ([1]; Experiment 1, dose 1%) was 78.9%, the “Oxazolone Ear swelling % Inhibition vs. Vehicle” value ([1]; Experiment 2, dose 1%) was 58.2% and the “% Inhibition of TPA Ear Edema vs. Vehicle” value [3] was 80.6%.
With `O=C(NCC1(c2ccccc2)CC1(c1ccccc1)c1ccccc1)Nc1ccccc1F` (stereo not drawn) [Compound 93] the “Oxazolone Ear Swelling (MOCH) % inhibition vs. Vehicle at 1 mg” value [1] was 26%, the “hGR, value given as %” value [2] was 17% and the “hPR % inh 10 μM” value [4] was 33.9%.
In the case of `COc1ccccc1CCC(=O)NCC(c1ccc(Cl)cc1)C(c1ccccc1)c1ccccc1` (stereo not drawn) [Compound 21], the IC50 [2] is reported as 57 nM, the “hPR % inh 10 μM” value [4] is reported as 21% and the melting point is reported as 122.2 to 123.5 °C.
For `O=C(Cc1ccccc1)NCC(c1ccccc1)C(c1ccccc1)c1ccccc1` (stereo not drawn) [Compound 1], the IC50 [2] was 890 nM, the “hPR % inh 10 μM” value [4] was −0.2% and the melting point was 146 to 147 °C.
For `O=C(Cc1ccccc1)NCC(c1ccccc1)C(c1ccc(F)cc1)c1ccc(F)cc1` (stereo not drawn) [Compound 15], the inhibition in vivo at 1 mg [1] was 47%, the “topical antiinflammatory activity” value [1] was “moderate topical activity” and the IC50 [2] was 21 nM. It also gave a melting point of 87.5 to 89.7 °C.
